In patent publication US6825230B2, “Spiro and dispiro 1,2,4-trixolane antimalarials” (Medicines for Malaria Venture MMV, priority 2002, dated 2004):
Read-outs that look alike come from different tables or passages of the source.

Tests used:
P. berghei ANKA strain [1] = assay: Onset of action and recrudescence experiment, single 100 mg/kg po; assay type: in vivo, Plasmodium berghei; conditions: single 100 mg/kg po (SSV) on day +3 post-infection; recrudescence = >5% parasitemia; followed up to 60 days; groups of five
Procedure: The onset of drug action was determined after a single fixed dose of 100 mg/kg (SSV vehicle) po to groups of five animals on day +3 post-infection (day 0).
(§1) Moro NMRI male mice (Fu Albino specific pathogen free) weighing 18±2 g were infected intravenously (i.v.) with 2×10^7 P. berghei ANKA strain-infected erythrocytes from donor mice on day 0 of the experiment. From donor mice with circa 30% parasitemia, heparinized blood was taken and diluted in physiological saline to 10^8 parasitized erythrocytes per ml. An aliquot (0.2 ml) of this suspension was injected i.v. into experimental and control groups of mice. […] Throughout the experiments, mice were kept in groups of three or five animals in Makrolon type II cages in an air-conditioned animal room at 22 to 23° C.

P. berghei ANKA strain [2] = assay: Prophylactic activity, single 100 mg/kg po at various times before infection; assay type: in vivo, Plasmodium berghei
Procedure: as §1
Prophylactic activities of the compounds were compared after administering po single dose of 100 mg/kg to different groups of five animals at various times before infection. All groups including an untreated control group, were then infected at the same time. Parasitemia was determined for each animal on day 3 post-infection, and percent of reduction of the level of parasitemia compared to levels for animals given no drug is determined.

P. berghei ANKA strain [3] = assay: Divided 3x10 mg/kg vs single 1x30 mg/kg po dose in infected mice; assay type: in vivo, Plasmodium berghei
[4] = Pharmacokinetics in dogs (IV and oral dosing); conditions: in vivo, dog; for bioavailability: some values marked (V), not defined
Excerpt: (§2) Artesunate is listed as a reference compound.

[5] = Pharmacokinetics in rats (IV and oral dosing); conditions: in vivo, rat; for bioavailability: po
Excerpt: as §2

[6] = test system: ANKA strain of P. berghei; assay: Single dose STI in vivo screen in infected mice; design: species or system Plasmodium berghei; conditions: for Survival (days) 10 mg/kg SSV po: single 10 mg/kg po in SSV
P. berghei ANKA strain [7] = assay: Divided 3x3 mg/kg and 3x1 mg/kg po doses in infected mice; assay type: in vivo, Plasmodium berghei
How it was run: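 Male NMRI mice were infected i.v. with 2×10^7 P. berghei-parasitized erythrocytes on day 0, then dosed orally in SSV vehicle on days 1, 2 and 3 post-infection.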

[8] = test system: ANKA strain of Plasmodium berghei; assay: Single dose ED50/ED90/ED99 determination in infected mice; assay type: in vivo; conditions: for ED50: Plasmodium berghei
How it was run: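 Moro SPF or NMRI mice (three per group) infected with P. berghei ANKA were dosed once on day 1 post-infection in SSV (0.5% CMC, 0.5% benzyl alcohol, 0.4% Tween 80, 0.9% NaCl). Parasitemia reduction was scored on day 3; ED values (mg/kg) came from nonlinear fitting.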

[9] = test system: Schistosoma mansoni adult worms (49-day-old); assay: Effect on adult schistosomes (49-day-old) in infected mice; assay type: in vivo; conditions: for % reduction of adult worms growth at day 49 after per os application of 400 mg/kg, TWR (%) / Adult worms day 49, per os 400 mg/kg, DEAD WORM (%): single 400 mg/kg per os
Procedure: Mice were infected with 100 Schistosoma mansoni cercariae on day 49 post-treatment. Each group was treated per os with OZ compounds at single doses of 200, 400, and 600 mg/kg. Untreated mice served as the control. All groups were killed 4 weeks after treatment and the liver and intestine were removed and separated. The liver and intestine were compressed and alive male and female worms could be seen and counted.

Schistosoma japonicum = assay: Effect in mice infected with Schistosoma japonicum; assay type: in vivo; conditions: for MFWB (mean female worm burden) x ± SD: control 11.6 ± 2.4; for MTWB (mean total worm burden) x ± SD: control 26.6 ± 4.2
[10] = test system: chloroquine-resistant K1 strain of P. falciparum; assay: In vitro antimalarial semiautomated microdilution assay ([3H]-hypoxanthine incorporation), K1 strain; assay type: cell-based, Plasmodium falciparum; conditions: Plasmodium falciparum, K1, 72 h, read-out: IC50 (ng/ml) K1, chloroquine-resistant K1 strain, 72 h incubation
How it was run: (§3)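 Semiautomated microdilution against intraerythrocytic P. falciparum from asynchronous stock cultures, with growth tracked by [3H]-hypoxanthine incorporation. IC50 values were estimated by Logit regression analysis.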

[11] = test system: chloroquine-sensitive NF54 strain of P. falciparum; assay: In vitro antimalarial semiautomated microdilution assay ([3H]-hypoxanthine incorporation), NF54 strain; assay type: cell-based, Plasmodium falciparum; conditions: Plasmodium falciparum, NF54, 72 h, read-out: IC50 (ng/ml) NF54, chloroquine-sensitive NF54 strain, 72 h incubation
How it was run: as §3

S. haematobium = assay: In vivo activity against S. haematobium; design: species or system Schistosoma haematobium; conditions: 1 x 200 mg/kg p.o.
[12] = test system: Schistosoma mansoni 21-day-old schistosomules; assay: Effect on 21-day-old schistosomules in infected mice; assay type: in vivo; conditions: single 200 mg/kg per os, 21-day-old schistosomules
Procedure: Mice were infected with 100 Schistosoma mansoni cercariae on day 21 post-treatment. Each group was treated per os with trioxolanes at a single dose of 200 mg/kg. […] All groups were killed 4 weeks after treatment and the liver and intestine were removed and separated. The liver and intestine were compressed and alive male and female worms could be seen and counted. The effect of the compounds was evaluated by mean total and female worm burden.

[13] = single dose po in SSV on day 1 post-infection, parasitemia day 3, nonlinear fitting
[14] = 49-day-old adults, total worm reduction rate
[15] = percentage of dead worm in the liver
[16] = 1 x 200 mg/kg p.o. (table footnote)
[17] = 1 x 400 mg/kg p.o. (table footnote)
[18] = age of worm 7 days, 200 mg/kg x 1
[19] = age of worm 35 days, 200 mg/kg x 1
[20] = age of worm 35 days, 400 mg/kg x 1

Structure (SMILES): CC(C)(N)CNC(=O)C[C@H]1CC[C@]2(CC1)OO[C@]1(O2)C2CC3CC(C2)CC1C3 [OZ277]
- Time of Recrudescence (P. berghei ANKA strain [1]): 13.0 days
- Prophylactic Activity (%) 72 h (P. berghei ANKA strain [2]; po, 100 mg/kg): 9%
- Prophylactic Activity (%) 24 h (P. berghei ANKA strain [2]; single 100 mg/kg po 24 h before infection, parasitemia reduction on day 3 post-infection): 25%
- Prophylactic Activity (%) 48 h (P. berghei ANKA strain [2]; single 100 mg/kg po 48 h before infection, parasitemia reduction on day 3 post-infection): 7%
- Prophylactic Activity (%) 0 h (P. berghei ANKA strain [2]; single 100 mg/kg po at 0 h, parasitemia reduction on day 3 post-infection): 100%
- Survival (days) 3 × 10 mg/kg p.o. SSV (P. berghei ANKA strain [3]; 10 mg/kg po on days 1, 2, 3 post-infection): 27.6 days
- Activity (%) 3 × 10 mg/kg p.o. SSV (P. berghei ANKA strain [3]; 10 mg/kg po on days 1, 2, 3 post-infection, parasitemia reduction on day 4): 100%
- Survival (days) 1 × 30 mg/kg p.o. SSV (P. berghei ANKA strain [3]; single 30 mg/kg po on day 1 post-infection): 10.4 days
- Activity (%) 1 × 30 mg/kg p.o. SSV (P. berghei ANKA strain [3]; single 30 mg/kg po on day 1 post-infection, parasitemia reduction on day 4): 99.92%
- Cures 1 × 30 mg/kg p.o. SSV (P. berghei ANKA strain [3]; single 30 mg/kg po, cure = survival to day 30 post-infection): 0/5
- half-life ([4]; IV 10 mg/kg): 1.58 h
- half-life ([4]; oral 10 mg/kg): 2.47 h
- bioavailability ([4]; oral 10 mg/kg, read-out: Dog Oral Bioavailability 10 mg/kg): 87.9%
- bioavailability ([4]; oral 25 mg/kg, read-out: Dog Oral Bioavailability 25 mg/kg): 96.1%
- half-life ([5]; IV 10 mg/kg): 1.29 h
- half-life ([5]; oral 25 mg/kg): 1.51 h
- bioavailability ([5]; 10 mg/kg): 36.9%
- bioavailability ([5]; 25 mg/kg): 44.1%
- Survival (days) 3 mg/kg SSV po ([6]; single 3 mg/kg po in SSV): 9.6 days
- Survival (days) 10 mg/kg SSV po ([6]; untreated 6-7 days): 9.3 days
- Survival (P. berghei ANKA strain [7]; 3 × 1 mg/kg p.o. SSV on days 1, 2, 3 post-infection): 9.4 days
- Survival (P. berghei ANKA strain [7]; 3 × 3 mg/kg p.o. SSV on days 1, 2, 3 post-infection): 14 days
- Activity (%) (P. berghei ANKA strain [7]; 3 × 3 mg/kg p.o. SSV on days 1, 2, 3 post-infection, percent reduction of parasitemia vs control on day 4): 100%
- Activity (%) (P. berghei ANKA strain [7]; po, 1 mg/kg, 96 h): 83%
- Cures (P. berghei ANKA strain [7]; po, 3 mg/kg, 720 h): 0\5
- ED50 ([8]; single dose po in SSV on day 1 post-infection, parasitemia day 3, nonlinear fitting, read-out: ED50): 0.78 mg/kg
- ED90 ([8]; po): 2.0 mg/kg
- ED99 [8, 13]: 4.4 mg/kg
- % reduction of adult worms growth at day 49 after per os application of 400 mg/kg, TWR (%) [9, 14]: 0/0%
- Adult worms day 49, per os 400 mg/kg, DEAD WORM (%) [9, 15]: 0/0%

Structure (SMILES): Cc1ccc(S(=O)(=O)O)cc1.NC[C@H]1CC[C@]2(CC1)OOC1(O2)C2CC3CC(C2)CC1C3 (some centres unmarked) [OZ207]
- S. Japonicum FWR (Schistosoma japonicum; [16]): 95%
- S. Japonicum TWR (Schistosoma japonicum; [16]): 66%
- S. Japonicum FWR (Schistosoma japonicum; [17]): 94%
- S. Japonicum TWR (Schistosoma japonicum; [17]): 84%
- Mice without female worm (Schistosoma japonicum; [18]): 0/8
- MFWB (mean female worm burden) x ± SD (Schistosoma japonicum; [18]): 2.1 ± 1.0
- MTWB (mean total worm burden) x ± SD (Schistosoma japonicum; [18]): 5.4 ± 2.4
- Mice without female worm (Schistosoma japonicum; [19]): 4/7
- MFWB (mean female worm burden) x ± SD (Schistosoma japonicum; [19]): 0.6 ± 0.7
- MTWB (mean total worm burden) x ± SD (Schistosoma japonicum; [19]): 9.1 ± 3.9
- Mice without female worm (Schistosoma japonicum; [20]): 4/6
- MFWB (mean female worm burden) x ± SD (Schistosoma japonicum; [20]): 0.7 ± 1.2
- MTWB (mean total worm burden) x ± SD (Schistosoma japonicum; [20]): 4.3 ± 1.2
- Time of Recrudescence (days) (P. berghei ANKA strain [1]): no recrudescence observed
- IC50 [10]: 0.33 ng/mL
- IC50 [11]: 0.57 ng/mL
- Survival (days) 10 mg/kg po ([6]; single 10 mg/kg po in 3% ethanol and 7% Tween 80, untreated 6-7 days): 9.3 days
- Activity (%) 10 mg/kg po ([6]; single 10 mg/kg po in 3% ethanol and 7% Tween 80 on day 1 post-infection, percent reduction in parasitemia on day 3): 99.96%
- Survival (days) 10 mg/kg SSV po ([6]; untreated 6-7 days): 12.0 days
- Activity (%) 10 mg/kg SSV po ([6]; single 10 mg/kg po in standard suspending vehicle (SSV) on day 1 post-infection, percent reduction in parasitemia on day 3): 99.98%
- Survival (days) 10 mg/kg sc ([6]; single 10 mg/kg sc in 3% ethanol and 7% Tween 80, untreated 6-7 days): 11.3 days
- Activity (%) 10 mg/kg sc ([6]; single 10 mg/kg sc in 3% ethanol and 7% Tween 80 on day 1 post-infection, percent reduction in parasitemia on day 3): 99.98%
- S. haematobium DEAD WORM (S. haematobium): 68%
- S. haematobium TWR (S. haematobium): 73%
- % reduction of schistosomule growth at day 21 after per os application of 200 mg/kg, FWR (%) ([12]; female worm reduction rate): 100%
- % reduction of schistosomule growth at day 21 after per os application of 200 mg/kg, TWR (%) ([12]; total worm reduction rate): 93%
- ED50 ([8]; po, single dose po in SSV on day 1 post-infection, parasitemia day 3, nonlinear fitting): 0.37 mg/kg
- ED90 [8, 13]: 1.2 mg/kg
- ED99 [8, 13]: 3.0 mg/kg
- % reduction of adult worms growth at day 49 after per os application of 200 mg/kg, TWR (%) ([9]; single 200 mg/kg per os, 49-day-old adults, total worm reduction rate): 32%
- Adult worms day 49, per os 200 mg/kg, DEAD WORM (%) ([9]; single 200 mg/kg per os, percentage of dead worm in the liver): 17%
- % reduction of adult worms growth at day 49 after per os application of 400 mg/kg, TWR (%) [9, 14]: 35%
- Adult worms day 49, per os 400 mg/kg, DEAD WORM (%) [9, 15]: 21%
- % reduction of adult worms growth at day 49 after per os application of 600 mg/kg, TWR (%) ([9]; single 600 mg/kg per os, 49-day-old adults, total worm reduction rate): 11/ %
- Adult worms day 49, per os 600 mg/kg, DEAD WORM (%) ([9]; single 600 mg/kg per os, percentage of dead worm in the liver): 24++ %
